Reference: PMC6199744, “Development of Chemical Proteomics for the Folateome and Analysis of the Kinetoplastid Folateome” (ACS Infectious Diseases, 2018)
Like-named read-outs stand apart in the source and are kept apart here.

Assays:
Type in all cases: binding
[1] = molecular target: T1, HeLa cell extract proteins (Homo sapiens, UniProt O15111); settings: HeLa; protein CHUK
T1 construct: endogenous in cells; host or cells: HeLa cell extract
T1 sequence (O15111 1-745): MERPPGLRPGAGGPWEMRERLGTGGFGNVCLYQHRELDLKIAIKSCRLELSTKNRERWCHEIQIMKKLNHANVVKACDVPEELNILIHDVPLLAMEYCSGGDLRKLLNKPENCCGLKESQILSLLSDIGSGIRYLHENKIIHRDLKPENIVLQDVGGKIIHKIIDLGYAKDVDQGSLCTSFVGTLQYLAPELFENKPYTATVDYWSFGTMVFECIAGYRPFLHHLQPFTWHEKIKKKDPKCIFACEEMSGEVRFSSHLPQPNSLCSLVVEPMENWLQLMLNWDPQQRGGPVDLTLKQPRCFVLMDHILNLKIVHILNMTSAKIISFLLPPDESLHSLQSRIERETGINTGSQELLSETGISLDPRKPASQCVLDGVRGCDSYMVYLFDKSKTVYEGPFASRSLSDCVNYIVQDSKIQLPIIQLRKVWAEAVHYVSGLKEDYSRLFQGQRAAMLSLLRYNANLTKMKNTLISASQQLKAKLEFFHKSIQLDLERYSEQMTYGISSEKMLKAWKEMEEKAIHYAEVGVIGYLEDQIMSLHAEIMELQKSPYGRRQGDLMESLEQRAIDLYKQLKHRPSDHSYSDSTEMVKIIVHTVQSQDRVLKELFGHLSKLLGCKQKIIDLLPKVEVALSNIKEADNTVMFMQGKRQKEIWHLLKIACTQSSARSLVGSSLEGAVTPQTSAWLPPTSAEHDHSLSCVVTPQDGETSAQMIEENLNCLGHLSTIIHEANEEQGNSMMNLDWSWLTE

[2] = molecular target: T2, HeLa cell extract proteins (Homo sapiens, UniProt P35237); settings: protein SERPINB6; HeLa
T2 construct: endogenous in cells; host or cells: HeLa cell extract
T2 sequence (P35237 1-376): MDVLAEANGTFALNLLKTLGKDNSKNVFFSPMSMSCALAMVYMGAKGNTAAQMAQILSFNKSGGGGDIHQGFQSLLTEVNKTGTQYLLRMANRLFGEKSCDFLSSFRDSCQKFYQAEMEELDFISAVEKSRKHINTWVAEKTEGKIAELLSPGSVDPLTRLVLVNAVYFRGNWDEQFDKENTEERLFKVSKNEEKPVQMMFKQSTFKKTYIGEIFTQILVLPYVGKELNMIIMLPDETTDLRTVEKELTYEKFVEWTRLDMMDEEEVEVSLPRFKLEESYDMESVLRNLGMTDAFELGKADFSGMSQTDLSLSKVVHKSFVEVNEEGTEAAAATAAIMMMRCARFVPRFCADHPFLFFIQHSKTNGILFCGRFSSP

[3] = molecular target: T3, HeLa cell extract proteins (Homo sapiens, UniProt Q15233); settings: protein NONO; HeLa
T3 construct: endogenous in cells; host or cells: HeLa cell extract
T3 sequence (Q15233 1-471): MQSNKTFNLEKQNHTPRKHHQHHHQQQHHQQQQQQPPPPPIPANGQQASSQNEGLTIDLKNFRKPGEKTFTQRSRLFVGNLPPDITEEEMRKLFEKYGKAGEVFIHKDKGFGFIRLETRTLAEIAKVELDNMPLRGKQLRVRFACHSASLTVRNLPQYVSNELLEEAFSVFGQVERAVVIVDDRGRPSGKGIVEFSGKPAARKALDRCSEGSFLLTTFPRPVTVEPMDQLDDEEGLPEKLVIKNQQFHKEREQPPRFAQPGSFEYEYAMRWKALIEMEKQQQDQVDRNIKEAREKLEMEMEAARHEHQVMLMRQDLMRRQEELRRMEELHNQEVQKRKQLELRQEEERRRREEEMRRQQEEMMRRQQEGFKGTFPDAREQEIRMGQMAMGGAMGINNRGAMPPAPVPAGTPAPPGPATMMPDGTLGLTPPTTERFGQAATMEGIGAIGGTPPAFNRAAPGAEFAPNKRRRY

[4] = molecular target: T4, HeLa cell extract proteins (Homo sapiens, UniProt O00170)
T4 construct: endogenous in cells; host or cells: HeLa cell extract
T4 sequence (O00170 1-330): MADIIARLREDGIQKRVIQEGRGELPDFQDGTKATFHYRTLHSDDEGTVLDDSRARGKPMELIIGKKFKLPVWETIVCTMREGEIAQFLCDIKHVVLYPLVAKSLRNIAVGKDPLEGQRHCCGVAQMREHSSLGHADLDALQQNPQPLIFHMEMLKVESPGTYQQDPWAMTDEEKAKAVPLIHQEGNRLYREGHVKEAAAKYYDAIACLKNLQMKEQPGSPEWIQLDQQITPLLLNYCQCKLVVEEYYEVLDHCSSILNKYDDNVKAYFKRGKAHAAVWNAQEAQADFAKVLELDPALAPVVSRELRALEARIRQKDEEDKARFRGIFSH

[5] = molecular target: T5, HeLa cell extract proteins (Homo sapiens, UniProt O43819)
T5 construct: endogenous in cells; host or cells: HeLa cell extract
T5 sequence (O43819 42-266): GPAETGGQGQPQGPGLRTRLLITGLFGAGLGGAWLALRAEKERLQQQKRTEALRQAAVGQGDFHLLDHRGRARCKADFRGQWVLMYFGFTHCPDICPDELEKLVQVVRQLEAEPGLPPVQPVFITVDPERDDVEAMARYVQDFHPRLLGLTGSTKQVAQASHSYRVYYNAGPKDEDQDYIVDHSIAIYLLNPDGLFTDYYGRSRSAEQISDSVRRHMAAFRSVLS

[6] = molecular target: T6, HeLa cell extract proteins (Homo sapiens, UniProt P42330)
T6 construct: endogenous in cells; host or cells: HeLa cell extract
T6 sequence (P42330 1-323): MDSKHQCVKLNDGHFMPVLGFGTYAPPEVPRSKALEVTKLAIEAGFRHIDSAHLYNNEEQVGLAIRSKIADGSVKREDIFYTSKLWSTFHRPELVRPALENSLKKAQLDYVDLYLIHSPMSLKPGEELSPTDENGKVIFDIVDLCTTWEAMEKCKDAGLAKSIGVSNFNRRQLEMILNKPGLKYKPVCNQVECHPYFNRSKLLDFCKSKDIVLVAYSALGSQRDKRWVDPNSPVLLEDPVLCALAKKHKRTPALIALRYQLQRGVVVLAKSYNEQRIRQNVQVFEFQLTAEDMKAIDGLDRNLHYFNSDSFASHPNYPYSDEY

[7] = molecular target: T7, HeLa cell extract proteins (Homo sapiens, UniProt P49736)
T7 construct: endogenous in cells; host or cells: HeLa cell extract
T7 sequence (P49736 whole entry): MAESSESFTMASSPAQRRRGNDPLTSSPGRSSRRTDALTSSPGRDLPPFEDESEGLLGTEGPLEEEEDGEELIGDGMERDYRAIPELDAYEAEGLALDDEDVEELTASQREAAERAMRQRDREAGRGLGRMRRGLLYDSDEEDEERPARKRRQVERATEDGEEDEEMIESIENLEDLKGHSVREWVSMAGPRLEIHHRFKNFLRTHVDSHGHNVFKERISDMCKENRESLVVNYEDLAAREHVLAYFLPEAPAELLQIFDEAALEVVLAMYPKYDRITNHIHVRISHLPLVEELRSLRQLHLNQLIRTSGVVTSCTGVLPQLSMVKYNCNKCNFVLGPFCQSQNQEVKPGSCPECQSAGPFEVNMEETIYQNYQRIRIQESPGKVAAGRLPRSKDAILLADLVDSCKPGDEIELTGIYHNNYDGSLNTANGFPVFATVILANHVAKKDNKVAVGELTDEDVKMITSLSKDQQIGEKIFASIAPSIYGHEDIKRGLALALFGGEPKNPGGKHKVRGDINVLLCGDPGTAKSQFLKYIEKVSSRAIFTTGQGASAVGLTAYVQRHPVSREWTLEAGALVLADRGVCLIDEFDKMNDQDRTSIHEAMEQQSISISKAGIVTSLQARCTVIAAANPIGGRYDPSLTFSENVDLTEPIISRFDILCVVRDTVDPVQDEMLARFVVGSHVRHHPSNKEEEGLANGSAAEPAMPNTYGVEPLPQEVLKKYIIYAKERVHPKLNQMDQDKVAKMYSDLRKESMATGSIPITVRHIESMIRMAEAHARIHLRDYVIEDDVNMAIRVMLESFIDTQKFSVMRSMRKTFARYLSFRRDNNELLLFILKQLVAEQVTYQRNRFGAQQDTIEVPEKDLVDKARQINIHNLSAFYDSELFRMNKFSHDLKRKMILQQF

[8] = molecular target: T8, HeLa cell extract proteins (Homo sapiens, UniProt P63241)
T8 construct: endogenous in cells; host or cells: HeLa cell extract
T8 sequence (P63241 whole entry): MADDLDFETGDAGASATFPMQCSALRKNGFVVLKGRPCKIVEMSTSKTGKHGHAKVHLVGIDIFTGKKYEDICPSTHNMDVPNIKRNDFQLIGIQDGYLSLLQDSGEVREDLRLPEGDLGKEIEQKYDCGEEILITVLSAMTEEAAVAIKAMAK

[9] = molecular target: T9, HeLa cell extract proteins (Homo sapiens, UniProt Q9P2J5)
T9 construct: endogenous in cells; host or cells: HeLa cell extract
T9 sequence (Q9P2J5 whole entry): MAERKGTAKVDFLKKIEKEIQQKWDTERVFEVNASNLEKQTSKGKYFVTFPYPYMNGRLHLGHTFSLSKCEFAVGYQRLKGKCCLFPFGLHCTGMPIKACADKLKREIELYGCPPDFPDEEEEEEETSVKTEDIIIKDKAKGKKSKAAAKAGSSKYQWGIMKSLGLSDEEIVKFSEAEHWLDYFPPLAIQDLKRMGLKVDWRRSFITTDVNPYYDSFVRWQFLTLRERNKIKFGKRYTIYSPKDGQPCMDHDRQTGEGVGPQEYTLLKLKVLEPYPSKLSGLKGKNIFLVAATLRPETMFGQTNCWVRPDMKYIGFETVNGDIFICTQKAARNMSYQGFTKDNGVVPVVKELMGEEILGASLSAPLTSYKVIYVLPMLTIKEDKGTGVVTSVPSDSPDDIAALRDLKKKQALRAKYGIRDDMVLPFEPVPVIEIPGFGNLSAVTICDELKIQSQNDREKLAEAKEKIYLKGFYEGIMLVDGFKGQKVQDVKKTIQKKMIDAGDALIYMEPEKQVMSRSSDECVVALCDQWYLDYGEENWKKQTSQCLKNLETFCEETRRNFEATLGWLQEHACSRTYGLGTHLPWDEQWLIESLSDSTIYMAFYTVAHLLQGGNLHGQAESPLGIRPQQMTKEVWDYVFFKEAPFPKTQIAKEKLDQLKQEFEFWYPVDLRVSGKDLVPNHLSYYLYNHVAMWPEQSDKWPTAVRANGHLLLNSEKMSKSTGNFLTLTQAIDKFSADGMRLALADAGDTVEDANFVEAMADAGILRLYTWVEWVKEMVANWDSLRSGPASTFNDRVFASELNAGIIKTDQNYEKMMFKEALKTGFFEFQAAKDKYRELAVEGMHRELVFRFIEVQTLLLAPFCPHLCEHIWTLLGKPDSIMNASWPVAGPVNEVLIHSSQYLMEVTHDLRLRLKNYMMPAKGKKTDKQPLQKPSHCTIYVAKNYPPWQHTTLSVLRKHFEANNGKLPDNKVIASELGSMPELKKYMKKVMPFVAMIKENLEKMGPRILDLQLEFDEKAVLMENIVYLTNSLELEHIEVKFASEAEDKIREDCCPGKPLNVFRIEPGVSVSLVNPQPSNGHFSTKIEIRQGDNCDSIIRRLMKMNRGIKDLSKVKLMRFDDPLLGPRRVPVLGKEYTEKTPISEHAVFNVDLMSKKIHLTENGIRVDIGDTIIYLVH

Row | SMILES | fold changes relative to vehicle control [1] | fold changes relative to vehicle control [2] | fold changes relative to vehicle control [3] | fold changes relative to vehicle control ([4]; HeLa, captured protein AIP) | fold changes relative to vehicle control ([5]; HeLa, protein SCO2) | fold changes relative to vehicle control ([6]; HeLa, protein AKR1C3) | fold changes relative to vehicle control ([7]; HeLa, protein MCM2) | fold changes relative to vehicle control ([8]; HeLa, captured protein EIF5A) | fold changes relative to vehicle control ([9]; HeLa, protein LARS) | also measured
1 | CCCCCCOc1cccc(Cc2cnc(N)nc2N)c1 [compound 2] | 1.04 | 1.61 | 1.67 | – | – | – | – | – | – | –
2 | NCCOCCOCC(=O)Nc1nc2ncc(CNc3ccc(C(=O)NC(CCC(=O)O)C(=O)O)cc3)nc2c(=O)[nH]1 (stereo not drawn) [compound 6] | – | – | – | 0.92 | 1.02 | 1.3 | 1.18 | 1.61 | 1 | –
3 | CCCCCCOc1ccc(Cc2cnc(N)nc2N)cc1 [compound 1] | 0.98 | 1.14 | 0.97 | – | – | – | – | – | – | –
4 | Nc1nc2c(c(=O)[nH]1)N(C=O)C(CNc1ccc(C(=O)N[C@@H](CCC(=O)O)C(=O)O)cc1)CN2 (stereo partly drawn) [LEU, leucovorin] | – | – | – | 0.79 | 0.95 | 0.98 | 1.06 | 1.12 | 1.04 | –
5 | NCCCNc1ccc(C(=O)NC(CCC(=O)O)C(=O)O)cc1 (stereo not drawn) [compound 7] | – | – | – | 0.99 | 1.03 | 0.99 | 0.88 | 1.02 | 1.13 | –
6 | Nc1nc2[nH]cc(CCc3ccc(C(=O)N[C@@H](CCC(=O)O)C(=O)O)cc3)c2c(=O)[nH]1 [PTX, pemetrexed] | – | – | – | – | – | – | – | – | – | fold changes relative to vehicle control [4]: 0.93; fold changes relative to vehicle control [5]: 0.95; fold changes relative to vehicle control [6]: 1.13; fold changes relative to vehicle control [7]: 1.05; fold changes relative to vehicle control [8]: 1.32; fold changes relative to vehicle control [9]: 1.11
7 | Nc1nc2cccc(-c3ccccc3)c2n1Cc1ccc(Cl)c(Cl)c1 [compound 3] | 0.9 | 0.92 | 0.92 | – | – | – | – | – | – | –
